# pIC50: −log10 of the molar value.
# Tests used:
# LT-HSCs = assay: CFU assay of LT-HSCs sorted from E14.5 fetal livers of treated embryos; type: in vivo, mice; conditions: DCA-treated embryos vs control and UK5099
# Method: (§1) Pregnant female C57Bl/6xB6.SJL mice were injected intraperitoneally at E9.5 with UK5099 (4 mg/kg) or DCA (200 mg/kg) or PBS (control). Embryos were harvested at E14.5 and individually weighed and processed. Fetal livers were dissected and homogenized in 800 μL ice cold PBS supplemented with 2% fetal bovine serum (FBS) and FL cells were washed in PBS with 2% FBS. For the differentiated lineage panel, cells were stained with B220 and CD19 (B-cell markers)-PE, CD3e-APC, Ter119-PeCy7 and CD71-FITC and analyzed on a BD FACSARIA III. For the HSC panel, samples were first treated with ammonium chloride solution (STEMCELL Technologies, France) to lyse red blood cells, washed twice in ice cold PBS with 2% FBS, stained with CD3e, B220, Ter119, Gr1 (Lineage)-PeCy5, c-Kit-Efluor780, Sca1-BV421, CD48-FITC, CD150-BV605 and 7-AAD (for dead cell exclusion) and analyzed on a BD FACSARIA III. […] For plating of CFU assays, 100 LT-HSCs were sorted (gating strategy shown in FIG. 13, d) and resuspended in 3.0 mL Methocult M3434 (STEMCELL Technologies, France). Each mixture was divided onto 2 wells of a non-tissue culture treated 6-well plate. Following a 14-day incubation in a humidified incubator at 37° C., 5% CO2, 20% O2, colonies were morphologically distinguished and scored.
# NSG mice = NSG mice transplantation of DCA-treated HE cells; type: in vivo; conditions: week 8; text does not separate DCA from control
# Method: Sorted human HE cells (350,000) were mixed with OP9-DL1 stroma (60,000) and subcultured for 3 days with or without DCA (3 mM) on Matrigel (16 μg/cm^2, Corning)-coated 12-well plates in HE medium^30. Between 100,000-150,000 cells from control or DCA samples were transplanted into sub-lethally irradiated (300 cGy) 8-week-old female NOD/Cg-Prkdc^scid Il2rg^tm1Wjl/SzJ mice (NSG, The Jackson Laboratory) together with 20,000 whole bone marrow support cells from C57Bl/6.SJL mice (CD45.1+/CD45.2+, in house breeding). Cells were transplanted in single cell solution in 250 μL PBS with 2% FBS through intravenous tail vein injection. Drinking water of transplanted NSG mice was supplemented with ciprofloxacin (125 mg/L, HEXAL) for 3 weeks after transplantation to prevent infection. Mice were housed in a controlled environment with 12-hour light-dark cycles with chow and water provided ad libitum. Experiments and animal care were performed in accordance with the Lund University Animal Ethical Committee.
# Peripheral blood (PB) was collected from the tail vein into EDTA-coated microvette tubes (Sarstedt, Cat #20.1341.100). […]
# Bone marrow was analyzed at the 12-week transplantation endpoint. […]
# HE cells = assay: Lymphoid differentiation assay on OP9-DL1 stroma; type: cell-based, human; conditions: 3-day subculture with UK5099 10 μM or DCA 3 mM, then 35-day co-culture, vs untreated
# Method: Subculture day 3 HE cells cultured in the presence of UK5099 (10 μM), DCA (3 mM), or in glutamine-free medium with DMK (1.75 mM), nucleosides (1×) or NEAAs (1×), as indicated, were collected after a 2-minute incubation at 37° C. with StemPro Accutase Cell Dissociation Reagent and seeded onto 80% confluent OP9-DL1 stroma. Cells were cultured in OP9 medium with SCF (10 ng/ml), FLT3-L (10 ng/ml), IL-2 (5 ng/ml), IL-7 (5 ng/ml, first 15 days only) and IL-15 (10 ng/ml) with passaging onto new OP9-DL1 stroma every week, as described previously (Renoux, V. M. et al. Immunity 43, 394-407 (2015)). At day 35 of co-culture, cells were analyzed on a BD LSRFortessa.
# C57Bl/6xB6.SJL mice = assay: In vivo compound injection of pregnant mice, fetal liver analysis at E14.5
# Method: as §1
# EHT cells = assay: EHT cell subculture with compounds, flow cytometry; type: cell-based, human; conditions: deriving from EHT cells, day 6; UK5099 10 μM
# [1] = tested on: mitochondrial pyruvate carrier (MPC); conditions: read-out: IC50 of pyruvate-dependent O2 consumption; cited from earlier work
Compound,decrease in the BFU-E to CFU-GM ratio (LT-HSCs) [%],engraftment: human CD45+ cells in the peripheral blood (NSG mice),NK cell differentiation (CD45+CD56+) (HE cells),effect on in vivo EHT and hematopoiesis (C57Bl/6xB6.SJL mice; UK5099 4 mg/kg i.p. at E9.5),"frequency of phenotypic long-term HSCs (LT-HSCs) (C57Bl/6xB6.SJL mice; fetal liver E14.5, i.p. at E9.5, UK5099 4 mg/kg or DCA 200 mg/kg)",decrease in the CD43+CD45+ population (EHT cells),pIC50 [1]
"O=C(O)C(Cl)Cl [DCA, dichloroacetate]",80,around 1%,–,–,–,–,–
N#C/C(=C\c1cn(-c2ccccc2)c2ccccc12)C(=O)O [UK5099],–,–,impaired NK cell formation,No significant effect,not affected,2 -fold,[…]
